In publication PMC8980701 (Neuropharmacology, 2020):
Counter-ions that a name gives are not always drawn.

Assays:
Type in all cases: in vivo, male Sprague-Dawley rats
[1] = test system: cocaine self-administration; assay: Cocaine self-administration; details: for Active Lever Presses / Inactive Lever Presses: cocaine 0.25 mg/kg/inf, mean ± SEM
[2] = Pharmacokinetics in plasma after single s.c. dose, alone or in combination; details: for half-life: t1/2; for concentration at 0 h / concentration at 15 min / concentration at 30 min / concentration at 60 min / concentration at 120 min / concentration at 180 min / concentration at 240 min / concentration at 360 min: Plasma concentration
cocaine-seeking behavior = assay: Cocaine-seeking behavior test
[3] = rat plasma, single dose 0.5 mg/kg s.c., drug alone, mean ± SEM
[4] = rat plasma, single dose 1 mg/kg s.c., drug alone, mean ± SEM
[5] = rat plasma, single dose 3 mg/kg s.c., drug alone, mean ± SEM
[6] = lorcaserin 0.5 mg/kg s.c., 15 min pretreatment
[7] = lorcaserin 1 mg/kg s.c., 15 min pretreatment
[8] = male, Sprague-Dawley, rat, in vivo, sc, 0.5 mg/kg
[9] = male, Sprague-Dawley, rat, in vivo, sc, 1 mg/kg
[10] = male, Sprague-Dawley, rat, in vivo, sc, 3 mg/kg
[11] = male, Sprague-Dawley, rat, in vivo, sc, 10 mg/kg
[12] = pimavanserin 3 mg/kg s.c., 30 min pretreatment

Cc1cc2c(cc1Cl)N(C(=O)Nc1ccc(Oc3cccnc3C)nc1)CC2 [SB242084, 6-chloro-5-methyl-1-[[2-(2-methylpyrid-3-yloxy)pyrid-5-yl]carbamoyl] indolinedihydrochloride]
Effect on lorcaserin-evoked suppression of cocaine intake ([1]; SB242084 0.5 mg/kg i.p. plus lorcaserin 1 mg/kg, p < 0.05, Fig. 1B): prevented this lorcaserin-evoked suppression of cocaine intake

C[C@H]1CNCCc2ccc(Cl)cc21 [Lorcaserin, (1R)-8-chloro-2,3,4,5-tetrahydro-1-methyl-1H-3-benzazepine]
AUCExtrap [2, 3]: 12.68 ± 2.45%
λ [2, 3]: 0.31 ± 0.03 h⁻¹
AUCExtrap [2, 4]: 8.06 ± 0.47%
λ [2, 4]: 0.39 ± 0.02 h⁻¹
AUCExtrap [2, 5]: 7.97 ± 0.50%
λ [2, 5]: 0.38 ± 0.01 h⁻¹
Effect on cocaine intake (infusions) ([1]; acute lorcaserin 1 mg/kg, vs. control, p < 0.05, Fig. 1B): suppressed cocaine intake
Active Lever Presses [1, 6]: 536.23 ± 16.03
Inactive Lever Presses [1, 6]: 2.08 ± 0.40
Active Lever Presses [1, 7]: 492.46 ± 18.99
Inactive Lever Presses [1, 7]: 3.00 ± 0.91
Increase of latency to the first response vs. control (cocaine-seeking behavior; acute lorcaserin 1 mg/kg): ~ 6.7 fold
Decrease of cue-reinforced lever presses vs. control (cocaine-seeking behavior; acute lorcaserin 1 mg/kg, FA day 10, p < 0.05): ~ 64.4%
Suppression of inactive lever presses vs. control (cocaine-seeking behavior; acute lorcaserin 1 mg/kg, p < 0.05): ~ 64.6%
Latency to the first response (cocaine-seeking behavior; acute lorcaserin 1 mg/kg, p < 0.05 vs. control (14.39 ± 2.41 s)): 95.83 ± 35.78 s
Suppression of inactive lever presses vs. control (cocaine-seeking behavior; repeated lorcaserin 1 mg/kg): n.s.
Decrease of cue-reinforced lever presses vs. control (cocaine-seeking behavior; repeated lorcaserin 1 mg/kg twice daily for 10 days, FA day 10, p < 0.05): ~ 36.4%
Latency to the first response (cocaine-seeking behavior; repeated lorcaserin 1 mg/kg, n.s. vs. control (14.39 ± 2.41 s)): 30.15 ± 5.52 s

CC(C)COc1ccc(CNC(=O)N(Cc2ccc(F)cc2)C2CCN(C)CC2)cc1 [Pimavanserin]
AUC0-inf [2, 8]: 15.02 ± 0.32 ng·h/mL
AUC0-t [2, 8]: 14.40 ± 0.31 ng·h/mL
AUCExtrap [2, 8]: 3.89 ± 1.42%
Cl/F [2, 8]: 556.7 ± 12.2 mL/min/kg
Cmax [2, 8]: 12.17 ± 0.38 ng/mL
Half-life, t1/2 [2, 8]: 77.4 ± 27 min
Tmax [2, 8]: 17.4 ± 2.4 min
λ [2, 8]: 0.76 ± 0.14 h⁻¹
Plasma concentration ([2]; male, Sprague-Dawley, rat, in vivo, sc, 0.5 mg/kg, 0 h): 0.08 ± 0.05 ng/mL
Plasma concentration ([2]; male, Sprague-Dawley, rat, in vivo, sc, 0.5 mg/kg, 15 min): 12.15 ± 0.39 ng/mL
Plasma concentration ([2]; male, Sprague-Dawley, rat, in vivo, sc, 0.5 mg/kg, 30 min): 9.93 ± 0.50 ng/mL
Plasma concentration ([2]; male, Sprague-Dawley, rat, in vivo, sc, 0.5 mg/kg, 60 min): 5.40 ± 0.23 ng/mL
Plasma concentration ([2]; male, Sprague-Dawley, rat, in vivo, sc, 0.5 mg/kg, 120 min): 2.09 ± 0.13 ng/mL
Plasma concentration ([2]; male, Sprague-Dawley, rat, in vivo, sc, 0.5 mg/kg, 180 min): 0.86 ± 0.11 ng/mL
Plasma concentration ([2]; male, Sprague-Dawley, rat, in vivo, sc, 0.5 mg/kg, 240 min): 0.45 ± 0.10 ng/mL
Plasma concentration ([2]; male, Sprague-Dawley, rat, in vivo, sc, 0.5 mg/kg, 360 min): 0.13 ± 0.06 ng/mL
AUC0-inf [2, 9]: 41.72 ± 2.7 ng·h/mL
AUC0-t [2, 9]: 41.27 ± 2.64 ng·h/mL
AUCExtrap [2, 9]: 1.09 ± 0.28%
Cl/F [2, 9]: 409.2 ± 30.2 mL/min/kg
Cmax [2, 9]: 30.13 ± 2.17 ng/mL
Half-life, t1/2 [2, 9]: 53.4 ± 3 min
λ [2, 9]: 0.79 ± 0.04 h⁻¹
Plasma concentration ([2]; male, Sprague-Dawley, rat, in vivo, sc, 1 mg/kg, 0 h): 0.05 ± 0.03 ng/mL
Plasma concentration ([2]; male, Sprague-Dawley, rat, in vivo, sc, 1 mg/kg, 15 min): 30.13 ± 2.17 ng/mL
Plasma concentration ([2]; male, Sprague-Dawley, rat, in vivo, sc, 1 mg/kg, 30 min): 24.50 ± 1.59 ng/mL
Plasma concentration ([2]; male, Sprague-Dawley, rat, in vivo, sc, 1 mg/kg, 60 min): 16.8 ± 1.02 ng/mL
Plasma concentration ([2]; male, Sprague-Dawley, rat, in vivo, sc, 1 mg/kg, 120 min): 6.34 ± 0.39 ng/mL
Plasma concentration ([2]; male, Sprague-Dawley, rat, in vivo, sc, 1 mg/kg, 180 min): 3.55 ± 0.81 ng/mL
Plasma concentration ([2]; male, Sprague-Dawley, rat, in vivo, sc, 1 mg/kg, 240 min): 1.12 ± 0.14 ng/mL
Plasma concentration ([2]; male, Sprague-Dawley, rat, in vivo, sc, 1 mg/kg, 360 min): 0.35 ± 0.08 ng/mL
AUCExtrap [2, 10]: 4.26 ± 0.68%
λ [2, 10]: 0.59 ± 0.03 h⁻¹
AUC0-inf ([2]; male, Sprague-Dawley, rat, in vivo, sc, 3 mg/kg, AUC0-inf): 198 ± 8.33 ng·h/mL
AUC0-t ([2]; male, Sprague-Dawley, rat, in vivo, sc, 3 mg/kg, AUC0-t): 189 ± 7.75 ng·h/mL
Cmax ([2]; male, Sprague-Dawley, rat, in vivo, sc, 3 mg/kg, CMAX): 79.5 ± 3.76 ng/mL
CL/F [2, 10]: 255 mL/min/kg
half-life ([2]; male, Sprague-Dawley, rat, in vivo, sc, 3 mg/kg, Half-life): 70.8 ± 3 min
concentration at 0 h [2, 10]: 0.02 ± 0.02 ng/mL
concentration at 15 min [2, 10]: 71.1 ± 5.89 ng/mL
concentration at 30 min [2, 10]: 74.5 ± 5.1 ng/mL
concentration at 60 min [2, 10]: 63.4 ± 3.59 ng/mL
concentration at 120 min [2, 10]: 39.8 ± 2.4 ng/mL
concentration at 180 min [2, 10]: 27.8 ± 2.37 ng/mL
concentration at 240 min [2, 10]: 15.7 ± 1.48 ng/mL
concentration at 360 min [2, 10]: 4.85 ± 0.62 ng/mL
Tmax ([2]; male, Sprague-Dawley, rat, in vivo, sc, 3 mg/kg, TMAX): 22.8 ± 3.6 min
AUCExtrap [2, 11]: 32.22 ± 4.18%
λ [2, 11]: 0.21 ± 0.02 h⁻¹
AUC0-inf ([2]; male, Sprague-Dawley, rat, in vivo, sc, 10 mg/kg, AUC0-inf): 1290 ± 112 ng·h/mL
AUC0-t ([2]; male, Sprague-Dawley, rat, in vivo, sc, 10 mg/kg, AUC0-t): 858 ± 54.7 ng·h/mL
Cmax ([2]; male, Sprague-Dawley, rat, in vivo, sc, 10 mg/kg, CMAX): 213 ± 15.9 ng/mL
CL/F [2, 11]: 135 mL/min/kg
half-life ([2]; male, Sprague-Dawley, rat, in vivo, sc, 10 mg/kg, Half-life): 218 ± 32.4 min
concentration at 0 h [2, 11]: 0.09 ± 0.41 ng/mL
concentration at 15 min [2, 11]: 170 ± 18.8 ng/mL
concentration at 30 min [2, 11]: 190 ± 19.9 ng/mL
concentration at 60 min [2, 11]: 208 ± 15.6 ng/mL
concentration at 120 min [2, 11]: 179 ± 11.6 ng/mL
concentration at 180 min [2, 11]: 154 ± 15.1 ng/mL
concentration at 240 min [2, 11]: 116 ± 7.99 ng/mL
concentration at 360 min [2, 11]: 79.9 ± 6.24 ng/mL
Tmax ([2]; male, Sprague-Dawley, rat, in vivo, sc, 10 mg/kg, TMAX): 57.6 ± 15 min
Tmax ([2]; male, Sprague-Dawley, rat, in vivo, sc, TMAX): 15 to 60 min
half-life ([2]; male, Sprague-Dawley, rat, in vivo, sc): 53 to 218 min
Effect on cocaine infusions ([1]; acute pimavanserin 0.3, 1, 3 mg/kg, vs. control, Fig. 1A): No main effect
Active Lever Presses [1, 12]: 523.00 ± 54.57
Inactive Lever Presses [1, 12]: 3.44 ± 1.74
Effect on inactive lever presses (cocaine-seeking behavior; acute and repeated pimavanserin 3 mg/kg, FA day 10): No main effect
Decrease of cue-reinforced lever presses vs. control (cocaine-seeking behavior; acute pimavanserin 3 mg/kg, FA day 10, p < 0.05): ~ 41.4%
Latency to the first response (cocaine-seeking behavior; acute pimavanserin 3 mg/kg, n.s. vs. control (14.39 ± 2.41 s)): 29.83 ± 5.43 s
Increase of latency to the first response vs. control (cocaine-seeking behavior; repeated pimavanserin 3 mg/kg): ~ 2.5 fold
Decrease of cue-reinforced lever presses vs. control (cocaine-seeking behavior; repeated pimavanserin 3 mg/kg twice daily for 10 days, FA day 10, p < 0.05): ~ 27.1%
Latency to the first response (cocaine-seeking behavior; repeated pimavanserin 3 mg/kg, p < 0.05 vs. control (14.39 ± 2.41 s)): 35.25 ± 7.81 s
